Reference: US20260250247A1, “NOVEL INDOLINE DERIVATIVE AND USE THEREOF” (CK REGEON INC., priority 2023, published 2026)

Tests used:
[1] = molecular target: CXXC5-Dvl interaction (PDZ domain of Dvl (dishevelled) protein / PTD-DBM-FITC); experiment: CXXC5-Dvl binding inhibition, competition of PTD-DBM-FITC on plate-bound Dvl PDZ domain; conditions: purified Dvl PDZ domain 5 μg/mL, 10 μM PTD-DBM-FITC, compounds 0.001-100 μM, FITC fluorescence
Method: 5 μg/mL of the purified PDZ domain ofDvl (dishevelled) protein was attached to the bottom of a 96-well black immunoplate and left in a chamber at 4° C. for one day. The next day, each well was washed with PBS and 10 μM PTD-DBM-FITC was added. After incubation at room temperature for 3 hours, each well was washed with PBS. Each well was treated with the indoline derivatives at various concentrations (100, 10, 1, 0.1, 0.01, and 0.001 μM) in 100 μL of PBS. After washing with a buffer, fluorescence was measured by FITC using a microplate reader. A competition binding curve showing the degree of CXXC5-Dvl PPI inhibition was constructed using the GraphPad Prism software, and the IC50 value was calculated. […] CK090), and the intermediate compound 5-cyanoindirubin as controls.

3T3-L1 pre-adipocytes = experiment: Inhibition of adipocyte differentiation and lipid accumulation, Oil Red O; format: cell-based; conditions: Mus musculus, 192 h; 3T3-L1, compound 1 μM, MDI-induced differentiation for 8 days, Oil Red O eluted, absorbance 544 nm; read-out: lipid accumulation rate
Method: 3T3-L1 cells were seeded in a 6-well plate at a density of […] cells per well. The cells were grown to 100% confluency in Dulbecco's modified Eagle's medium (DMEM) supplemented with 10% bovine calf serum (BCS; GIBCO). Two days after reaching 100% confluency, differentiation was induced with or without treatment with the indoline compound at a concentration of 1 μM in DMEM containing 10% fetal bovine serum (FBS; GIBCO) and MDI (520 μM methylisobutylxanthine (IBMX; Sigma-Aldrich), 1 μM dexamethasone (Sigma-Aldrich), and 5 μM insulin (GIBCO)). On day 3, the medium was replaced with DMEM containing 10% FBS and 5 μM insulin with or without the indoline compound, and then with a fresh identical medium every 2 days. After differentiation for 8 days, the culture medium was removed, and the cells were washed with PBS and then fixed with 10% formaldehyde for 1 hour. After removing the 10% formaldehyde, the cells were washed thoroughly with distilled water. After that, 60% isopropanol was added and immediately then removed. After washing with distilled water, lipid droplets were stained with an Oil Red O dye solution for 20 minutes and then washed with distilled water. The cells were counterstained with Mayer's hematoxylin. Oil Red O images were visualized using a bright-field microscope (Nikon TE-2000U). To quantify the accumulated lipids, Oil Red O was eluted by adding isopropanol, and absorbance was measured spectrophotometrically at 544 nm using a multi-plate reader.
As A3051 (KY19382) and A3334, self-developed and synthesized materials were used. As BIO, or GSK 3 Inhibitor IX, also known as 6-bromoindirubin-3′-oxime, HY-10580 was purchased commercially.
In FIG. 2, the undifferentiated group (Un Diff) refers to undifferentiated adipocytes, or preadipocytes that had not been induced to differentiate, and the differentiated group (Diff) refers to fully differentiated adipocytes.

[2] = system: lipid droplets / PPARγ in liver tissue; experiment: Liver Oil Red O staining and PPARγ immunohistochemistry in MASH mice; format: in vivo, C57BL/6N mice; conditions: 25 mg/kg/day orally for 4 weeks
Method: (§1) Five-week-old wild-type male C57BL/6N mice were purchased from Orient Bio Co., Ltd. They were allowed to acclimate to the laboratory environment for one week. Mice weighing 18-20 g on average were used in the experiment. To ensure ethical and scientific validity and efficient management of animal experiments, the experiment was conducted with the approval of the Institutional Review Board (IACUC-A-202205-1472-01) of Severance Hospital, Yonsei University College of Medicine.
(§2) The mice were divided into a normal group (NCD) and a high-fat diet group (HFD). The normal group (NCD) was fed a normal chow diet (NCD, Teklad Global 18% protein rodent diet), and the high-fat diet group (HFD) was fed a high-fat diet (HFD, D12492) in which fat accounted for 60% of the total calories, for 8 weeks.
(§3) Mice induced with metabolic dysfunction-associated steatohepatitis (MASH) (hereinafter, referred to as MASH or MASH group) were prepared by administering CCl4 intraperitoneally twice a week for 4 weeks after feeding the high-fat diet (HFD) for 8 weeks. The […] was diluted with corn oil at a ratio of 1:19 and injected at a dosage of 2 mL/kg. The normal group (NOD) was administered the same volume of physiological saline.
(§4) The animals were divided into 7 groups, each with 10 animals.
It was investigated whether the accumulation of triglycerides in the liver is suppressed effectively. For this purpose, liver tissue was extracted from each group, and it was prepared into 10-μm thick cryosections, which were then stained with Oil Red O. Details are as follows. After preparing the 7 groups, the animals were euthanized using carbon dioxide and the liver tissues were extracted. A certain area of the extracted liver tissue was cryosectioned to 10 μm thickness, fixed in 4% neutral paraformaldehyde for 20 minutes at room temperature, and washed with 70% isopropanol (Duksan Pure Chemicals). After staining with the Oil Red O (Sigma-Aldrich) reagent for 20 minutes, the sections were washed thoroughly three times with distilled water. The tissue was counterstained with Mayer's hematoxylin. Then, Oil Red O staining images were visualized using a bright-field microscope (Nikon TE-2000U).
After preparing the 7 groups, the animals were sacrificed using carbon dioxide and the liver tissues were extracted. The extracted tissues were fixed in 4% neutral paraformaldehyde and embedded in paraffin to prepare sections. The paraffin sections were cut to 4-μm thickness, deparaffinized, and then rehydrated. For antigen exposure, slides were autoclaved in a 10 mM sodium citrate buffer (pH 6.0). To block endogenous peroxidase activity prior to peroxidase IHC analysis, the tissues were incubated with 0.3% H2O2 for 10 minutes. The incubated sections were treated with phosphate-buffered saline (PBS) containing 10% NGS and 0.3% Tween-20 for 1 hour at room temperature, treated with primary antibodies of anti-PPARγ (1:50; Abcam), and incubated overnight at 4° C.
The sections treated with the primary antibodies were washed with PBS and incubated with biotinylated anti-mouse (1:400; Dako) or anti-rabbit (1:400; Dako) secondary antibodies for 1 hour at room temperature. The sections incubated with the secondary antibodies were stained with 3,3′-diaminobenzidine (DAB; Dako) for 3-7 minutes and then counterstained with Mayer's haematoxylin. All incubations were performed in a humid chamber. After the staining, images were taken and analyzed using a bright-field microscope (Nikon TE-2000U).

[3] = system: mice induced with metabolic dysfunction-associated steatohepatitis (MASH); experiment: Liver fibrosis score from collagen staining (Picrosirius red) in MASH mice; format: in vivo, C57BL/6N mice; conditions: 25 mg/kg/day orally for 4 weeks, mean±SD, normal group 0, MASH group 3.11
Method: as §1, §2, §3, §4
After preparing the 7 groups, the animals were euthanized using carbon dioxide and the liver tissues were extracted. The extracted tissues were fixed in 4% neutral paraformaldehyde and embedded in paraffin to prepare sections. The paraffin sections were cut to 4-μm thickness, deparaffinized, and then rehydrated. The hydrated sections were stained with a Weigert's iron hematoxylin solution for 8 minutes and then with Picrosirius red for 1 hour. Collagen fibers were stained red and nuclei were stained blue. The sections were photographed using a bright-field microscope (Nikon TE-2000U).
The main mechanism of nonalcoholic fatty liver disease is the induction of hepatic stellate cell activation, which induces collagen production and leads to liver fibrosis due to collagen accumulation. From the result of collagen staining (Picrosirius red) for observing the total amount of collagen deposition in Test Example 3-6, the liver fibrosis score was analyzed. Stages 2 to 3 were diagnosed as nonalcoholic fatty liver disease (MASH) (M. Brunt et al., 2005).
All quantitative data are presented as mean±standard deviation (SD). In each experiment, all measurements were made at least three times, and data were analyzed using the two-tailed, unpaired Student's t test. P values of <0.05 were considered statistically significant.

SMILES | IC50 [1] [µM] | activity at 1 µM (3T3-L1 pre-adipocytes) [%] | lipid droplet formation and lipid infiltration in liver, Oil Red O staining [2] | Degree of liver fibrosis (fibrosis score) [3] | Degree of liver fibrosis (fibrosis score) ([3]; listed as CK004)
CN1CCN(CCO/N=C2/C(=C3/C(=O)Nc4ccc(C#N)cc43)Nc3ccccc32)CC1 [Example 4, (2Z,3E)-3-((2-(4-methylpiperazin-1-yl)ethoxy)imino)-2′-oxo-[2,3′-biindolinylidene]-5′-carbonitrile] | 0.0209 | 26 | a significant effect of inhibiting lipid infiltration at a level similar to that of the normal group (NCD) | 0.67 | 0.67
N#Cc1ccc2c(c1)/C(=C1/Nc3ccccc3/C1=N\OCCN1CCOCC1)C(=O)N2 [Example 2, (2Z,3E)-3-((2-morpholinoethoxy)imino)-2′-oxo-[2,3′-biindolinylidene]-5′-carbonitrile] | 0.00861 | 32.3 | the size and number of lipid droplets were significantly reduced | 1.85 | 
N#Cc1ccc2c(c1)/C(=C1/Nc3ccccc3/C1=N\OCCN1CCNCC1)C(=O)N2 [Example 1, (2Z,3E)-2′-oxo-3-((2-(piperazin-1-yl)ethoxy)imino)-[2,3′-biindolinylidene]-5′-carbonitrile] | 0.0193 | 32.2 | the size and number of lipid droplets were significantly reduced | 2.00 | 
N#Cc1ccc2c(c1)/C(=C1/Nc3ccccc3/C1=N\OCCN1CCSCC1)C(=O)N2 [Example 3, (2Z,3E)-2′-oxo-3-((2-thiomorpholinoethoxy)imino)-[2,3′-biindolinylidene]-5′-carbonitrile] | 0.00554 | 28.9 | a significant effect of inhibiting lipid infiltration at a level similar to that of the normal group (NCD) | 1.56 | 
